# From patent US12479791B2, “Cationic lipid” (Takeda Pharmaceutical Company Limited, priority 2018, dated 2025)
# Key:
# FVII gene = assay: Hepatic FVII gene knockdown in CCl4 hepatic fibrosis mouse model; type: in vivo; details: male Balb/c mouse, Col1a1 siRNA + FVII siRNA 0.1 + 0.1 mg/kg intravenous, liver 4 days after administration, qPCR normalized with GAPDH
# Protocol: (§1) The Col1a1 siRNA-encapsulated lipid nanoparticle was administered at 0.1 mg/kg into the orbital plexus of the vein of each 8-week-old male Balb/c mouse. 3 hours later, CCl4 mixed with corn oil was orally administered at a dose of 0.1 mL/kg (10 mL/kg) by forced single-dose administration (n=6 in each group). 4 days after the administration of the siRNA-encapsulated lipid nanoparticle, the liver was collected from the mouse euthanized under anesthesia, followed by gene expression analysis by quantitative PCR. The Col1a1 gene expression level and the FVII gene expression level were normalized with the expression level of GAPDH. The amount of decrease in Col1a1 gene expression as compared with a siRNA non-administration group was regarded as the rate of knockdown. In mice intravenously given the siRNA-encapsulated lipid nanoparticle formed using the compound of the present invention, the knockdown of the activated stellate cell marker gene Col1a1 gene was strongly observed, as compared with the rate of knockdown of the hepatic parenchymal cell marker gene FVII.
# Col1a1 gene = assay: Hepatic collagen 1a1 gene knockdown in CCl4 hepatic fibrosis mouse model; type: in vivo; details: male Balb/c mouse, Col1a1 siRNA + FVII siRNA 0.1 + 0.1 mg/kg intravenous, liver 4 days after administration, qPCR normalized with GAPDH, vs siRNA non-administration group
# Protocol: as §1
# [1] = Analysis of Col1a1 siRNA + FVII siRNA-encapsulated lipid nanoparticle (Production Example 3); type: physicochemical; details: for Rate of encapsulation / Particle size: Col1a1 siRNA + FVII siRNA lipid nanoparticle; for Particle size: cationic lipid:DPPC:cholesterol:GS-020=60:10.6:28:1.4; for Col1a1 siRNA + FVII siRNA concentration: lipid nanoparticle dispersion after dialysis and filtration
# Description: (§2) The particle size of the lipid particle (in the composition) can be measured by a known approach. For example, the particle size can be calculated as a Z-average particle size by the cumulant analysis of an autocorrelation function using a particle size measurement apparatus Zetasizer Nano ZS (Malvern Instruments) based on a dynamic light scattering measurement technique. The particle size (average particle size) of the lipid particle (in the composition) is, for example, 10 to 200 nm, preferably 60 to 170 nm.
# (§3) The concentration and rate of encapsulation of the nucleic acid (e.g., siRNA or mRNA) in the composition of the present invention can be measured by a known approach. For example, the nucleic acid is fluorescently labeled using Quant-iT™ RiboGreen® (Invitrogen Corp.), and the fluorescence intensity can be measured to determine the concentration and the rate of encapsulation. The concentration of the nucleic acid in the composition can be calculated using a calibration curve prepared from aqueous nucleic acid solutions having known concentrations. The rate of encapsulation can be calculated on the basis of the difference in fluorescence intensity between the presence and absence of addition of Triton-X 100 (surfactant for disrupting the lipid particle). The concentration of the nucleic acid in the composition refers to the total concentration of a nucleic acid encapsulated in the lipid particle and an unencapsulated nucleic acid. The rate of encapsulation refers to the ratio of the nucleic acid encapsulated in the lipid particle to all nucleic acids in the composition.
# A lipid mixture (cationic lipid:DPPC:cholesterol:GS-020=60:10.6:28:1.4, molar ratio) was dissolved in 90% of EtOH and 10% of a 25 mM acetate buffer solution (pH 4.0) to obtain a 7.4 mg/ml lipid solution. siRNA against collagen 1a1 (Col1a1) and siRNA against factor VII (FVII) were dissolved in equal weights in a 25 mM acetate buffer solution (pH 4.0) to obtain a 0.15 mg/ml nucleic acid solution. The sequences of Col1a1 siRNA and FVII siRNA were quoted from Hepatology, […], No. 4, 2015, and Silence, Vol. 1, No. 16, 2010, respectively. The obtained lipid solution and nucleic acid solution were mixed at a flow rate ratio of 1 ml/min:5 ml/min using a microfluidic mixing apparatus NanoAssemblr (Precision NanoSystems Inc.) to obtain a dispersion containing a composition. The obtained dispersion was dialyzed against water at room temperature for 1 hour and against PBS at room temperature for 18 hours using Slyde-A-Lyzer (molecular weight cutoff: 20 K, Thermo Fischer Scientific Inc.). Subsequently, the dialysate was filtered through a 0.2 μm syringe filter (Iwaki) and preserved at 4° C. The siRNA-encapsulated lipid nanoparticle was very favorably formed using the compound of the present invention.
# [2] = test system: human colorectal cancer-derived cell line HCT116; assay: Transfection of cultured cell with mRNA (luciferase luminescence); type: cell-based; details: 10 ng luciferase mRNA, 24 hours
# Protocol: A human colorectal cancer-derived cell line HCT116 was cultured at a cell density of 6000 cells/well in a 96-well plate. 24 hours later, 10 μl of the lipid particle containing 10 ng of luciferase mRNA was added to the medium. 24 hours after the addition of mRNA, a reagent of Picagene LT2.0 kit (Toyobo Co., Ltd.) was added to the culture plate of HCT116. The luminescence (count per sec (cps)) of luciferase was measured using a luminescence plate reader EnVision (PerkinElmer, Inc.).
# [3] = Analysis of luciferase mRNA-encapsulated lipid nanoparticle (Production Example 2); type: physicochemical; details: for Rate of encapsulation / Average particle size: luciferase mRNA lipid nanoparticle; for mRNA concentration: luciferase mRNA lipid nanoparticle dispersion after dialysis and filtration; for Average particle size: cationic lipid:DPPC:cholesterol:GS-020=60:10.6:28:1.4
# Description: as §2, §3
# A lipid mixture (cationic lipid:DPPC:cholesterol:GS-020=60:10.6:28:1.4, molar ratio) was dissolved in 90% of EtOH and 10% of water to obtain an 8.5 mg/ml lipid solution. Luciferase mRNA (TriLink BioTechnologies, Inc.) was dissolved in a 10 mM 2-morpholinoethanesulfonic acid (MES) buffer solution (pH 4.0) to obtain a 0.22 mg/ml nucleic acid solution. The obtained lipid solution and nucleic acid solution were mixed at a flow rate ratio of 3 ml/min:6 ml/min at room temperature using NanoAssemblr apparatus (Precision NanoSystems Inc.) to obtain a dispersion containing a composition. The obtained dispersion was dialyzed against water at room temperature for 1 hour and against PBS at 4° C. for 48 hours using Slyde-A-Lyzer (molecular weight cutoff: 20 K, Thermo Fischer Scientific Inc.). Subsequently, the dialysate was filtered through a 0.2 μm syringe filter (Iwaki) and preserved at 4° C.
Structure (SMILES),Rate of FVII knockdown (FVII gene) [%],Rate of Col1a1 knockdown (Col1a1 gene) [%],Rate of encapsulation [1] [%],Particle size [1] [nm],Col1a1 siRNA + FVII siRNA concentration [1] [µg/mL],Average luminescence (cps) of 3 wells ([2]; Table 10 (PBS control 293)) [cps],Rate of encapsulation [3] [%],mRNA concentration [3] [µg/mL],Average particle size [3] [nm],Average luminescence (cps) of 3 wells ([2]; Table 9 (PBS control 80)) [cps],Average luminescence (cps) of 3 wells ([2]; Table 8 (PBS control 1293)) [cps],Average luminescence (cps) of 3 wells ([2]; Table 6 (PBS control 1040)) [cps],Average luminescence (cps) of 3 wells ([2]; Table 7 (PBS control 413)) [cps]
"CCCCCCCCCC(=O)OCC(COC(=O)CCCCCCCCC)(COC(=O)CCCCN(C)C)COC(=O)CCC(CCC)C(CCC)CCC (centres unmarked) [Example 16, 2-(((5-(Dimethylamino)pentanoyl)oxy)methyl)-2-(((4,5-dipropyloctanoyl)oxy)methyl)propane-1,3-diyl didecanoate]",15,74,96,103,124,141560,94,134,109,–,–,–,–
"CCCCCCCC(=O)OCC(COC(=O)CCCCCCC)(COC(=O)CCCCN(C)C)COC(=O)CCC(CCCCC)C(CCCCC)CCCCC (centres unmarked) [Example 13, 3-((5-(Dimethylamino)pentanoyl)oxy)-2,2-bis((octanoyloxy)methyl)propyl 4,5-dipentyldecanoate]",15,86,97,103,122,–,99,155,119,269467,–,–,–
"CCCCCC(=O)OCC(COC(=O)CCCCC)(COC(=O)CCCCN(C)C)COC(=O)CCC(CCCC)C(CCCC)CCCC (centres unmarked) [Example 15, 3-((5-(Dimethylamino)pentanoyl)oxy)-2,2-bis((hexanoyloxy)methyl)propyl 4,5-dibutylnonanoate]",–,–,–,–,–,3293,99,127,164,–,–,–,–
"CCCCCCCC(=O)OCC(COC(=O)CCCCCCC)(COC(=O)CCCCCN(C)C)COC(=O)CCC(CCCC)C(CCCC)CCCC (centres unmarked) [Example 11, 3-((6-(Dimethylamino)hexanoyl)oxy)-2,2-bis((octanoyloxy)methyl)propyl 4,5-dibutylnonanoate]",21,77,97,91,320,–,93,78,122,–,572560,–,–
"CCCCCCCC(=O)OCC(COC(=O)CCCCCCC)(COC(=O)CCCN(C)C)COC(=O)CCC(CCCC)C(CCCC)CCCC (centres unmarked) [Example 19, 3-((4-(Dimethylamino)butanoyl)oxy)-2,2-bis((octanoyloxy)methyl)propyl 4,5-dibutylnonanoate]",31,71,96,89,112,–,–,–,–,–,–,–,–
"CCCCCCCC(=O)OCC(COC(=O)CCCCCCC)(COC(=O)CCC(CCCC)C(CCCC)CCCC)COC(=O)NCCCCN(C)C (centres unmarked) [Example 18, 3-(((4-(Dimethylamino)butyl)carbamoyl)oxy)-2,2-bis((octanoyloxy)methyl)propyl 4,5-dibutylnonanoate]",–,–,–,–,–,12813,99,103,77,–,–,–,–
CCCCCCCC(=O)OCC(COC(=O)CCCCCN(C)C)(COC(=O)C(CCCCCC)CCCCCC)COC(=O)C(CCCCCC)CCCCCC [Example 8],–,–,–,–,–,–,91,97,103,–,–,381693,–
"CCCCCCCCCC(=O)OCC(COC(=O)CCCCCCCCC)(COC(=O)CCCCN(C)C)COC(=O)CCC(CCCC)C(CCCC)CCCC (centres unmarked) [Example 14, 2-(((4,5-Dibutylnonanoyl)oxy)methyl)-2-(((5-(dimethylamino)pentanoyl)oxy)methyl)propane-1,3-diyl didecanoate]",16,76,96,97,126,178133,94,134,88,–,–,–,–
"CCCCCCCC(=O)OCC(COC(=O)CCCCCCC)(COC(=O)CCCCN(C)C)COC(=O)CCC(CCC)C(CCC)CCC (centres unmarked) [Example 17, 3-((5-(Dimethylamino)pentanoyl)oxy)-2,2-bis((octanoyloxy)methyl)propyl 4,5-dipropyloctanoate]",–,–,–,–,–,7987,87,116,152,–,–,–,–
"CCCCCC(=O)OCC(COC(=O)CCCCC)(COC(=O)CCCCN(C)C)COC(=O)CCC(CCCCC)C(CCCCC)CCCCC (centres unmarked) [Example 12, 3-((5-(Dimethylamino)pentanoyl)oxy)-2,2-bis((hexanoyloxy)methyl)propyl 4,5-dipentyldecanoate]",–,–,–,–,–,–,93,160,134,62587,–,–,–
CCCCCCCC(=O)OCC(COC(=O)CCCCN(C)C)(COC(=O)CC(CCCCC)CCCCC)COC(=O)CC(CCCCC)CCCCC [Example 9],–,–,–,–,–,–,94,77,96,–,–,–,63493
